{"source": "patent US9295670B2", "about": "“Methods for treating obstructive sleep apnea” (priority 2011, dated 2016)", "key": {"[1]": {"test_system": "patients with moderate to severe OSA", "experiment": "Randomized, double-blind, placebo-controlled, crossover study with PYD in 12 patients with moderate to severe OSA (Example 1; PSG or PM)", "assay_type": "in vivo, human", "protocol": "(§1) A randomized, double-blind, placebo-controlled, crossover study with PYD was undertaken in 12 patients with moderate to severe OSA. PYD was prepared by grinding pyridostigmine bromide pills manufactured by Sunve Pharmaceutical Co., LTD., Shanghai, China and recapsulated into hard shell capsules. PYD bromide at 30 mg, 60 mg, 120 mg, or placebo was orally administered to patients before sleep each night for a total of four continuous nights. Lights went out within 5 min after the administration. Blood was drawn at 0, 0.5, 1, 1.5, 2, 2.5, 3, 4 and 7 hours after the administration, and serum drug concentrations were determined by a LC-MS method after proper pre-treatment of the blood samples. Patients were monitored by either a PSG or a PM throughout the nights."}, "[2]": {"settings": "in vivo; cited from earlier work"}, "diagnosed OSA patients": {"test_system": "diagnosed OSA patients", "experiment": "Double-blind, randomized, cross-over, placebo-controlled study of efficacy and safety of PYD in 6 OSA patients (Example 2; PSG, questionnaires)", "assay_type": "in vivo, human", "settings": "for Apnea/Hypopnea Index (AHI): 90 mg PYD bromide oral, mean of 6 patients; for Apnea/Hypopnea Index (AHI) / Apnea index (AI) / Hypopnea Index (HI): events per hour; for Apnea/Hypopnea Index (AHI) Reduction (%) / Hypopnea Index (HI) Reduction (%) / Apnea index (AI) Reduction (%) / Apnea/Hypopnea time Reduction (%) / Low Sat O2 Reduction (%) / Snore score Reduction (%): 90 mg vs placebo; for Apnea/Hypopnea time (%): percentage of total sleep time", "protocol": "A double-blind, randomized, cross-over, placebo-controlled study was conducted to evaluate the efficacy and safety of PYD in 6 diagnosed OSA patients. The study consists of a one-day acclimatization period followed immediately by a 2-day double-blind treatment period when patients received either 90 mg PYD bromide in hard shell capsules or a matching placebo before sleep with a light snack. All patients were required to maintain in a supine position throughout of the night, as OSA is most severe when patients is on their back. In such a way, the results are expected to be more conservative in judging therapeutic effects of the drug. Lights were turned off within 5 min after the administration of the drug. The patients were monitored by a PSG. Apnea, hypopnea, snoring, blood O2 saturation were monitored, recorded, and scored. Sleep questionnaires were taken everyday after sleep to evaluate the impact on the sleep satisfaction and at evening to evaluate the quality of life during the daytime. Safety of the drug was also monitored and evaluated."}, "OSA patient": {"test_system": "OSA patient", "experiment": "Randomized, double-blind, dose escalating study in one OSA patient (Example 3; PSG)", "assay_type": "in vivo, human", "settings": "FIG. 9", "protocol": "A randomized, double-blind, dose escalating study was carried out in one patient to determine optimum PYD dose range for treating OSA. The patient was administered to with 30, 60, 90 mg PYD bromide or a placebo before sleep, and was monitored by PSG throughout the night. AHI, AI, and total apnea/hypopnea time were lower in the nights administered with 30 or 60 mg PYD bromide compared with the night with 90 mg PYD bromide (FIG. 9). The number of low O2 saturation events was lower with 60 mg PYD bromide compared with that of 90 mg PYD bromide. The results obtained from the clinical study described in Example 2 were reexamined to compare the therapeutic responses in the windows of 2-5 hours and 5-7 hours after sleep. […] Since serum PYD concentrations are expected to be lower within 5-7 hours comparing with those within 2-5 hours, the optimum dose range may be less than 90 mg of PYD bromide in a single dose."}, "[3]": {"experiment": "Serum drug concentrations after oral PYD bromide in OSA patients (Example 1, LC-MS)", "assay_type": "in vivo, human", "protocol": "as §1"}, "[4]": {"settings": "one patient, three treatment nights (30, 60, 120 mg), 2-7 hours after lights off"}, "[5]": {"settings": "0-2 hr, P value >0.05, listed as Drug"}, "[6]": {"settings": "0-2 hr, P value >0.05, listed as PYD bromide"}, "[7]": {"settings": "2-7 hr, P value >0.05, listed as Drug"}, "[8]": {"settings": "2-7 hr, P value >0.05, listed as PYD bromide"}}, "note": "“Also recorded” adds a separate entry of the source. Marks after values point to notes of the source that are not given here."}
{"smiles": "CN(C)C(=O)Oc1ccc[n+](C)c1", "note": "[PYD, pyridostigmine]", "values": [{"measurement": "serious adverse reactions", "setting": "[1]; 30, 60, 120 mg oral, during the study", "value": "No serious adverse reaction was reported"}, {"measurement": "serum drug concentrations at which patients particularly responded positively", "setting": "[1]; 'particularly between'", "value": "3 to 60", "unit": "ng/mL"}, {"measurement": "AHI and events of low O2 saturation", "setting": "[1]; one patient, 0-2 hours after lights off", "value": "largely not changed"}, {"measurement": "AHI and low O2 saturation, dose response", "setting": "[1]; one patient, 30-60 mg compared with 120 mg PYD bromide, FIG. 2", "value": "lower AHI and less low O2 saturation"}, {"measurement": "reduction of AHI compared with placebo", "setting": "[1]; [4]", "value": "11-23%"}, {"measurement": "reduction of events of low blood O2 saturation compared with placebo", "setting": "[1]; [4]", "value": "10-18%"}, {"measurement": "adverse reactions at the highest dose", "setting": "[1]; patients treated with the highest dose", "value": "stomach upset and mild muscle cramp"}, {"measurement": "serum drug concentrations at which patients responded positively", "setting": "[1]; positive responses: reduction of AHI, AI, apnea/hypopnea time, snoring, increase in minimum oxygen saturation", "value": "2 to 150", "unit": "ng/mL"}, {"measurement": "elimination half-life", "setting": "[2]", "value": "approximately 1.78 hours"}, {"measurement": "Apnea/Hypopnea Index (AHI)", "setting": "diagnosed OSA patients; 0-2 hr after sleep", "value": 29.6}, {"measurement": "Apnea/Hypopnea Index (AHI)", "setting": "diagnosed OSA patients; 2-7 hr after sleep", "value": 20.4}, {"measurement": "Apnea/Hypopnea Index (AHI) Reduction (%)", "setting": "diagnosed OSA patients; 0-2 hr after sleep, P value >0.05, listed as Drug", "value": "13.1*** %"}, {"measurement": "Apnea/Hypopnea Index (AHI) Reduction (%)", "setting": "diagnosed OSA patients; 0-2 hr after sleep, P value >0.05, listed as PYD bromide", "value": "No statistically significant reduction"}, {"measurement": "Hypopnea Index (HI) Reduction (%)", "setting": "diagnosed OSA patients; 0-2 hr, P value >0.05", "value": "−17.7*** %"}, {"measurement": "Apnea index (AI) Reduction (%)", "setting": "diagnosed OSA patients; [5]", "value": "26.7*** %"}, {"measurement": "Apnea/Hypopnea time Reduction (%)", "setting": "diagnosed OSA patients; [5]", "value": "21.5*** %"}, {"measurement": "Low Sat O2 Reduction (%)", "setting": "diagnosed OSA patients; [5]", "value": "6.6*** %"}, {"measurement": "Snore score Reduction (%)", "setting": "diagnosed OSA patients; [5]", "value": "3.3*** %"}, {"measurement": "Apnea index (AI) Reduction (%)", "setting": "diagnosed OSA patients; [6]", "value": "No statistically significant reduction"}, {"measurement": "Apnea/Hypopnea time Reduction (%)", "setting": "diagnosed OSA patients; [6]", "value": "No statistically significant reduction"}, {"measurement": "Low Sat O2 Reduction (%)", "setting": "diagnosed OSA patients; [6]", "value": "No statistically significant reduction"}, {"measurement": "Snore score Reduction (%)", "setting": "diagnosed OSA patients; [6]", "value": "No statistically significant reduction"}, {"measurement": "Apnea/Hypopnea Index (AHI) Reduction (%)", "setting": "diagnosed OSA patients; 2-7 hr after sleep, P value <0.01 (0.0003), listed as Drug", "value": "28.0* %"}, {"measurement": "Apnea/Hypopnea Index (AHI) Reduction (%)", "setting": "diagnosed OSA patients; 2-7 hr after sleep, P value <0.01 (0.0003), listed as PYD bromide", "value": 28.0, "unit": "%"}, {"measurement": "Apnea/Hypopnea time Reduction (%)", "setting": "diagnosed OSA patients; 2-7 hr, 0.01 < P value < 0.05 (0.0133), listed as Drug", "value": "36.4** %"}, {"measurement": "Apnea/Hypopnea time Reduction (%)", "setting": "diagnosed OSA patients; 2-7 hr, 0.01 < P value < 0.05 (0.0133), listed as PYD bromide", "value": 36.4, "unit": "%"}, {"measurement": "Apnea index (AI) Reduction (%)", "setting": "diagnosed OSA patients; 2-7 hr, 0.01 < P value < 0.05 (0.0314), listed as Drug", "value": "37.3** %"}, {"measurement": "Apnea index (AI) Reduction (%)", "setting": "diagnosed OSA patients; 2-7 hr, 0.01 < P value < 0.05 (0.0314), listed as PYD bromide", "value": 37.3, "unit": "%"}, {"measurement": "Snore score Reduction (%)", "setting": "diagnosed OSA patients; 2-7 hr, P value <0.01 (0.0041), listed as Drug", "value": "18.8* %"}, {"measurement": "Snore score Reduction (%)", "setting": "diagnosed OSA patients; 2-7 hr, P value <0.01 (0.0041), listed as PYD bromide", "value": 18.8, "unit": "%"}, {"measurement": "Hypopnea Index (HI) Reduction (%)", "setting": "diagnosed OSA patients; [7]", "value": "10.3*** %"}, {"measurement": "Low Sat O2 Reduction (%)", "setting": "diagnosed OSA patients; [7]", "value": "12.5*** %"}, {"measurement": "Hypopnea Index (HI) Reduction (%)", "setting": "diagnosed OSA patients; [8]", "value": 10.3, "unit": "%"}, {"measurement": "Low Sat O2 Reduction (%)", "setting": "diagnosed OSA patients; [8]", "value": 12.5, "unit": "%"}, {"measurement": "Low Sat O2 (events/hr)", "setting": "diagnosed OSA patients; 90 mg, 0-2 hr after sleep", "value": 35.1, "unit": "events/hr"}, {"measurement": "Snore score (events/hr)", "setting": "diagnosed OSA patients; 90 mg, 0-2 hr after sleep", "value": 528, "unit": "events/hr"}, {"measurement": "Apnea index (AI)", "setting": "diagnosed OSA patients; 90 mg, 0-2 hr after sleep", "value": 16.9}, {"measurement": "Hypopnea Index (HI)", "setting": "diagnosed OSA patients; 90 mg, 0-2 hr after sleep", "value": 12.0}, {"measurement": "Apnea/Hypopnea time (%)", "setting": "diagnosed OSA patients; 90 mg, 0-2 hr", "value": 18.7, "unit": "%"}, {"measurement": "Low Sat O2 (events/hr)", "setting": "diagnosed OSA patients; 90 mg, 2-7 hr after sleep", "value": 24.9, "unit": "events/hr"}, {"measurement": "Snore score (events/hr)", "setting": "diagnosed OSA patients; 90 mg, 2-7 hr after sleep", "value": 485, "unit": "events/hr"}, {"measurement": "Apnea index (AI)", "setting": "diagnosed OSA patients; 90 mg, 2-7 hr after sleep", "value": 11.7}, {"measurement": "Hypopnea Index (HI)", "setting": "diagnosed OSA patients; 90 mg, 2-7 hr after sleep", "value": 8.7}, {"measurement": "Apnea/Hypopnea time (%)", "setting": "diagnosed OSA patients; 90 mg, 2-7 hr", "value": 14.5, "unit": "%"}, {"measurement": "PSG scores (AHI, AI, total apnea/hypopnea time, low O2 saturation events)", "setting": "diagnosed OSA patients; 90 mg, 5-7 hours compared with 2-5 hours after sleep, FIG. 10", "value": "statistically significantly lower"}, {"measurement": "daytime quality of life reported by patients", "setting": "diagnosed OSA patients; daytime following the drug treatment night", "value": "more energy, be more concentrated and be less sleepy"}, {"measurement": "tolerability / serious adverse reactions", "setting": "diagnosed OSA patients; single dose 90 mg PYD bromide", "value": "well tolerated; also recorded: no serious adverse reaction was reported"}, {"measurement": "adverse reactions found", "setting": "diagnosed OSA patients; single dose 90 mg, one patient", "value": "minor stomach upset"}, {"measurement": "longer total sleep time in the treatment night (average)", "setting": "diagnosed OSA patients; three patients, treatment night vs placebo night, FIG. 8", "value": 33, "unit": "min"}, {"measurement": "noise of snoring", "setting": "diagnosed OSA patients; treatment night compared with placebo night", "value": "quieter"}, {"measurement": "sleep quality, patients' self evaluation questionnaire", "setting": "diagnosed OSA patients; treatment night vs placebo night, FIG. 8", "value": "better sleep, more clear-headed, more energetic, and more satisfied sleep"}, {"measurement": "number of low O2 saturation events", "setting": "OSA patient; 60 mg compared with 90 mg PYD bromide", "value": "lower"}, {"measurement": "AHI, AI, and total apnea/hypopnea time", "setting": "OSA patient; nights with 30 or 60 mg compared with the night with 90 mg PYD bromide", "value": "lower"}, {"measurement": "serum drug concentrations in one patient", "setting": "[3]; one patient monitored by PSG all four nights, 30, 60, 120 mg oral, FIG. 2", "value": "3 to 45", "unit": "ng/mL"}, {"measurement": "time of peak serum drug concentration", "setting": "[3]; oral PYD bromide 30, 60 or 120 mg before sleep, 12 OSA patients, FIG. 1", "value": "3 to 4", "unit": "h"}]}
